The source of these data is paper PMC4978154, “Phase I metabolites of mephedrone display biological activity as substrates at monoamine transporters” (British Journal of Pharmacology, 2016).

Each structure is given as a SMILES string. Values joined by “and” are separate entries in the source; they are usually repeats but may differ in a detail not shown here. Equal values may be shown once. Read-outs that look alike come from different tables or passages of the source.

The target of one data set is T1, SERT (Rattus norvegicus, UniProt P31652).
T1 construct: a native tissue preparation that contains plasma membrane transporters in situ; from tissue; host or cells: rat whole brain minus striatum and cerebellum, synaptosomes
T1 sequence (P31652 whole entry): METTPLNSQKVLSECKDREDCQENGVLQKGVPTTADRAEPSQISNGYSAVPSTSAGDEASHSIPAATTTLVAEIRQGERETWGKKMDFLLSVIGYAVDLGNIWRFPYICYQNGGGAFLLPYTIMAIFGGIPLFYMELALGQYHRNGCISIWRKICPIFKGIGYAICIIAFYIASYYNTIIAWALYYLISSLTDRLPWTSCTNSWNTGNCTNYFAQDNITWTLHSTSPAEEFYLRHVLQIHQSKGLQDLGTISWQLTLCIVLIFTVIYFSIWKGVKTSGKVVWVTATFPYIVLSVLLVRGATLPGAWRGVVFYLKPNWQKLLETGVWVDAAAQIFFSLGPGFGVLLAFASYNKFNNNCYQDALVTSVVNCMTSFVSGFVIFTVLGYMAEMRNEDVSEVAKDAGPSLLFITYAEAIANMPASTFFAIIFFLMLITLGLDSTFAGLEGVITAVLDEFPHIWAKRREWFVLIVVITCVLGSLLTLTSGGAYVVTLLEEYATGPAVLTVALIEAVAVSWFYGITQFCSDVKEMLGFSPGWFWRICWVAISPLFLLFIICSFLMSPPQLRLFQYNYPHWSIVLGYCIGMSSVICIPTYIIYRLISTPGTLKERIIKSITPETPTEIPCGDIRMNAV
As to the kind of experiment: Transporter release assay in rat brain synaptosomes, SERT. Format: biochemical. The following applies: [3H]-5-HT; for EC50: mean (95% confidence interval). How it is done:
The ability of mephedrone and its metabolites to evoke release via DAT, NET and SERT was determined in rat brain synaptosomes as previously described (Baumann et al., 2012). Rats were killed with CO2, decapitated, and brains were rapidly removed and dissected on ice. Synaptosomes were prepared from striatum for DAT assays, whereas synaptosomes were prepared from whole brain minus striatum and cerebellum for the NET and SERT assays. [^3H]‐MPP^+ (9 nM) was used as the radiolabelled substrate for DAT and NET, whereas [^3H]‐5‐HT (5 nM) was used as the radiolabelled substrate for SERT. All buffers used in the release assays contained 1 μM reserpine to block vesicular uptake of substrates. The selectivity of assays was optimized for a single transporter by including unlabelled compounds [nomifensine and 1‐(2‐diphenylmethoxyethyl)‐4‐(3‐phenylpropyl)piperazine dihydrochloride (GBR12935) for SERT; GBR12935 and citalopram for NET; citalopram and desipramine for DAT] to prevent the uptake of [^3H]‐MPP^+ or [^3H]‐5‐HT by competing transporters. Synaptosomes were preloaded with radiolabelled substrate in Krebs‐phosphate buffer, which consisted of 126 mM NaCl, 2.4 mM KCl, 0.5 mM KH2PO4, 1.1 mM CaCl2, 0.83 mM MgCl2, 0.5 mM Na2SO4, 11.1 mM glucose, 13.7 mM Na2HPO4, 1 mg·mL^−1 ascorbic acid and 50 μM pargyline (pH = 7.4) for 1 h (steady state). Assays were initiated by adding 850 μL of preloaded synaptosomes to 150 μL of test drug. Dose–response curves were generated using eight different concentrations of mephedrone, nor‐mephedrone or 4‐OH‐mephedrone. Assays were terminated by vacuum filtration, and retained radioactivity was quantified by liquid scintillation counting.
Calculations were performed using Microsoft Excel® 2010 (Microsoft Corporation, Redmond, WA, USA) and GRAPHPAD PRISM 5.0. (GraphPad Software Inc., La Jolla, CA, USA). IC50 values for uptake inhibition and EC50 values for release were determined by nonlinear regression fits. Release data expressed as AUC were analysed by one‐way ANOVA followed by Bonferroni's multiple comparison test. Microdialysis and locomotor data were analysed by two‐way ANOVA (drug treatment × time) followed by Bonferroni's test. The effect of monensin treatment on basal efflux of tritiated substrate was analysed with the Mann–Whitney test. P values less than 0.05 (i.e. P < 0.05) were considered significant. The data and statistical analysis comply with the recommendations on experimental design and analysis in pharmacology (Curtis et al., 2015).

Another data set deals with T2, hSERT (Homo sapiens, UniProt P31645).
T2 construct: yellow fluorescent protein (YFP); expressed in transfected cells
T2 sequence (P31645 whole entry): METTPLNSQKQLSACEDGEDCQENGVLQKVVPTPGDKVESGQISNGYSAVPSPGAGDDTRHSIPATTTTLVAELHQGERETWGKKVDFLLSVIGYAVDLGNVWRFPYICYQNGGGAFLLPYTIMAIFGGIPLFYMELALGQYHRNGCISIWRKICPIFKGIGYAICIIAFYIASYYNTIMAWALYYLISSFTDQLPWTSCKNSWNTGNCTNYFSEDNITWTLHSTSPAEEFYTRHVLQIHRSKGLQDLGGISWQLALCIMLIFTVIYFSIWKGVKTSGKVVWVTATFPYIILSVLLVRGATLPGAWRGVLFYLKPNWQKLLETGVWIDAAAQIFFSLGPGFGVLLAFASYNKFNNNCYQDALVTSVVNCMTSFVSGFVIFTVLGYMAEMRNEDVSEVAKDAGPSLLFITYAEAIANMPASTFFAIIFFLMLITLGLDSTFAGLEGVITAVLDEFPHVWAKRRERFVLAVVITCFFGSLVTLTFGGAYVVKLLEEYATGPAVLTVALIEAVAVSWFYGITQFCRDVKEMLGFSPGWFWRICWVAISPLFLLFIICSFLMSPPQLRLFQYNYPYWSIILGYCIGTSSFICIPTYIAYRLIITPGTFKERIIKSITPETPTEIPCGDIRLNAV
As to the kind of experiment: Transporter release (superfusion) assay in HEK293 cells expressing hSERT. The data set is classed as cell-based. The following applies: test drug 10 μM, monensin 10 μM; post hoc Bonferroni. As to the method: The generation of HEK293 cells stably expressing the human isoforms of DAT (hDAT) and NET (hNET) was carried out as described previously (Scholze et al., 2002). For SERT, the human isoform (hSERT) was cloned in frame with yellow fluorescent protein (Schmid et al., 2001). The generation of a stable cell line was performed as described by Hilber and colleagues (Hilber et al., 2005). HEK293 cells were maintained in humidified atmosphere (5% CO2, 37°C) in DMEM, supplemented with 10% heat‐inactivated FBS and penicillin (100 u 100 mL^−1) and streptomycin (100 μg 100 mL^−1). Selection pressure was maintained by adding geneticin (50 μg·mL^−1) to the cell culture media.
Superfusion experiments were performed as described previously (Scholze et al., 2002). […] Finally, the cells were lysed in 1% SDS to determine the total radioactivity. Radioactivity per fraction was assessed by a liquid scintillation counter and expressed as fractional release, that is, the percentage of released ^3H in relation to total ^3H present at the beginning of the fraction (Sitte et al., 2000). For analysis, release was expressed as AUC.
Calculations were performed using Microsoft Excel® 2010 (Microsoft Corporation, Redmond, WA, USA) and GRAPHPAD PRISM 5.0. […] IC50 values for uptake inhibition and EC50 values for release were determined by nonlinear regression fits. […]

The conditions of data set [1]: forensic traffic case, ref Pedersen et al., 2013, cited from earlier work; for blood concentration, first case: parent drug:metabolite 28:2; for blood concentration, second case: parent drug:metabolite 29:9.
Where [2] appears, read: EC50 on transporter mediated efflux, SERT.

Regarding `Cc1ccc(C(=O)C(C)N)cc1.Cl` (stereo not drawn) [Nor‐mephedrone, 2‐amino‐1‐(p‐tolyl)propan‐1‐one hydrochloride], the EC50 (usually the concentration at which the effect is half-maximal) at SERT (setting [2]) was 200 nM and 210 nM.

As to `CNC(C)C(=O)c1ccc(C)cc1.Cl` (stereo not drawn) [Mephedrone, 2‐Methylamino‐1‐(p‐tolyl)propan‐1‐one hydrochloride], the “enhancement by monensin of drug-evoked [3H]-5-HT release at hSERT (AUC)” value at hSERT is reported as “significant”. For the same compound, the response at SERT (setting [2]) was half-maximal at 210 nM (EC50). In data set [1], the “blood concentration, first case” value was 28 µg/kg and the “blood concentration, second case” value is 29 µg/kg.

In the case of `CNC(C)C(=O)c1ccc(CO)cc1.Cl` (stereo not drawn) [4‐OH‐mephedrone, 1‐(4‐(hydroxymethyl)phenyl)‐2‐(methylamino)propan‐1‐one hydrochloride], the “rightward shift of SERT release curve compared with mephedrone” value at SERT is 10 fold. For the same compound, at SERT (read-out: EC50 on transporter mediated efflux, SERT), the EC50 is 2000 nM and 2010 nM. In addition, in data set [1], the “blood concentration, first case” value is 2 µg/kg and the “blood concentration, second case” value was 9 µg/kg.
